A word on the IC50: it is the point on the concentration scale where inhibition reaches its midpoint. Read a low IC50 as inhibition by little substance.

From ChEMBL document CHEMBL1156404, “Haploscleridamine, a novel tryptamine-derived alkaloid from a sponge of the order haplosclerida: an inhibitor of cathepsin K” (J Nat Prod, 2002) come the findings set out here.

The target in this assay is T1, Cathepsin K (Homo sapiens, UniProt P43235).
T1 sequence (P43235 whole entry): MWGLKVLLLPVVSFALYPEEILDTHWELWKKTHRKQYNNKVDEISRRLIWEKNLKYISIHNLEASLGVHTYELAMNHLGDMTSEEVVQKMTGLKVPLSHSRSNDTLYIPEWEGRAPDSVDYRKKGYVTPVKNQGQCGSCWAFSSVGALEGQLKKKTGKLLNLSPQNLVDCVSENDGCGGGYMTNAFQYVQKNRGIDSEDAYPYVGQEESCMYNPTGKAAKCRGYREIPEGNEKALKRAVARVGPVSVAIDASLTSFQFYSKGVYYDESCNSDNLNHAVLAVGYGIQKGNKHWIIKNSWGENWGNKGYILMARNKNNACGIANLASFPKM
As to the kind of experiment: Inhibition of cathepsin K by fluorimetric assay.

Consider `c1ccc2c3c([nH]c2c1)C(Cc1c[nH]cn1)NCC3` (configuration not stated) [HAPLOSCLERIDAMINE], for which half-maximal inhibition (IC50) was put at 26 µM.

Compound `NCCc1c[nH]c2ccccc12` [TRYPTAMINE] returned an IC50 of 15 µM.
